{"source": "patent US8987195B2", "about": "(priority 2012, dated 2015)", "molecular_target": "HCV NS3/4A protease genotype 1b (Hepatitis C virus genotype 1b, UniProt P26663)", "assay": "HCV NS3/4A protease time-resolved fluorescence (TRF) assay, Ki against genotype 1b", "assay_type": "biochemical", "experimental": "Measuring NS3/4A Inhibitory Activity (Ki) Against Genotype 1b, Against A156T Mutants and Against Genotype 3a\nOne assay for measuring inhibitory activity is HCV NS3 protease time-resolved fluorescence (TRF) assay as described below and in Mao et al., Anal. Biochem. 373:1-8, 2008 and International Patent Application Publication WO 2006/102087. A NS3 protease assay can be performed, for example, in a final volume of 20 μl assay buffer containing 50 mM HEPES, pH 7.5, 150 mM NaCl, 15% glycerol, 0.15% TRITON X-100, 10 mM DTT, and 0.1% PEG 8000. NS3 and NS4A protease is pre-incubated with various concentrations of inhibitors in DMSO for 30 min. The reaction is initiated by adding the TRF peptide substrate (final concentration 25 nM). NS3 mediated hydrolysis of the substrate was run for 2.5 hours at room temperature. Product fluorescence is detected using A Pherastar Plus plate reader (BMG) or Envision (Perkin Elmer Life and Analytical Sciences with excitation at 340 nm and emission at 615 nm using the appropriate delay time optimized for the europium fluorescence probe. Testing concentrations of different enzyme forms are selected to result in a signal to background ratio (S/B) of 10-30. IC50 values are derived using a standard four-parameter fit to the data. Ki values are derived from IC50 values using the following formula, IC50=Ki(1+[S]/KM), Eqn (1), where [S] is the concentration of substrate peptide in the reaction and KM is the Michaelis constant. See P. Gallinari et al., 38 BIOCHEM. 5620-32 (1999); P. Gallinari et al., 72 J. VIROL. 6758-69 (1998); M. Taliani et al., 240 ANAL. BIOCHEM. 60-67 (1996); Mao et al., Analytical Biochemistry 373: 1-8, 2008.\nThe assay described above was run against genotype 1b at a concentration of 0.2 nM, against A156T mutant strains at a concentration of 0.4 nM, and against genotype 3a at a concentration of 0.025 nM.", "key": {"[1]": {"conditions": "IC50 [gt-1b] (nM), NS3/4A genotype 1b, enzyme 0.2 nM, K+ salt"}, "[2]": {"conditions": "IC50 [gt-1b] (nM), NS3/4A genotype 1b, enzyme 0.2 nM"}, "[3]": {"conditions": "IC50 [gt-1b], NS3/4A protease TRF assay, genotype 1b enzyme 0.2 nM"}}}
{"smiles": "COc1ccc2nc(C)c3c(c2c1)CC[C@]1(C[C@H]2C(=O)N[C@]4(C(=O)NS(=O)(=O)C5(C)CC5)C[C@H]4/C=C\\CCCCC[C@H](NC(=O)O[C@H](C)C(C)C)C(=O)N2C1)O3", "note": "[Example 214, (2R)-3-methylbutan-2-yl [(2R,6S,12Z,13aS,14aR,16aS)-9′-methoxy-5′-methyl-14a-{[(1-methylcyclopropyl)sulfonyl]carbamoyl}-5,16-dioxo-1,1′,2′,5,6,7,8,9,10,11,13a,14,14a,15,16,16a-hexadecahydrospiro[cyclopropa[e]pyrrolo[1,2-a][1,4]diazacyclopentadecine-2,3′-pyrano[2,3-c]quinolin]-6-yl]carbamate]", "values": [{"measurement": "IC50", "setting": "[1]", "value": 0.005, "unit": "nM"}]}
{"smiles": "COc1ccc2nc(C)c3c(c2c1)CC[C@]1(C[C@H]2C(=O)N[C@]4(C(=O)NS(=O)(=O)C5(C)CC5)C[C@H]4/C=C\\CCCCC[C@H](NC(=O)O[C@@H](C)C(C)C)C(=O)N2C1)O3", "note": "[Example 215, (2S)-3-methylbutan-2-yl [(2R,6S,12Z,13aS,14aR,16aS)-9′-methoxy-5′-methyl-14a-{[(1-methylcyclopropyl)sulfonyl]carbamoyl}-5,16-dioxo-1,1′,2′,5,6,7,8,9,10,11,13a,14,14a,15,16,16a-hexadecahydrospiro[cyclopropa[e]pyrrolo[1,2-a][1,4]diazacyclopentadecine-2,3′-pyrano[2,3-c]quinolin]-6-yl]carbamate]", "values": [{"measurement": "IC50", "setting": "[1]", "value": 0.005, "unit": "nM"}]}
{"smiles": "Cc1nc2ccc(OC(F)(F)F)cc2c2c1O[C@@]1(C[C@H]3C(=O)N[C@]4(C(=O)NS(=O)(=O)C5(C)CC5)C[C@H]4/C=C\\CCCCC[C@H](NC(=O)OC(C)(C)C)C(=O)N3C1)CC2(F)F", "note": "[Example 220, tert-butyl [(2S,6S,12Z,13aS,14aR,16aS)-1′,1′-difluoro-5′-methyl-14a-{[(1-methylcyclopropyl)sulfonyl]carbamoyl}-5,16-dioxo-9′-(trifluoromethoxy)-1,1′,2′,5,6,7,8,9,10,11,13a,14,14a,15,16,16a-hexadecahydrospiro[cyclopropa[e]pyrrolo[1,2-a][1,4]diazacyclopentadecine-2,3′-pyrano[2,3-c]quinolin]-6-yl]carbamate]", "values": [{"measurement": "IC50", "setting": "[2]", "value": 0.033, "unit": "nM"}]}
{"smiles": "COc1ccc2nc(C3CC3)c3c(c2c1)C(F)(F)C[C@]1(C[C@H]2C(=O)N[C@]4(C(=O)NS(=O)(=O)C5(C)CC5)C[C@H]4/C=C\\CCCCC[C@H](NC(=O)OC4CCCC4)C(=O)N2C1)O3", "note": "[Example 247, cyclopentyl [(2S,6S,12Z,13aS,14aR,16aS)-5′-cyclopropyl-1′,1′-difluoro-9′-methoxy-14a-{[(1-methylcyclopropyl)sulfonyl]carbamoyl}-5,16-dioxo-1,1′,2′,5,6,7,8,9,10,11,13a,14,14a,15,16,16a-hexadecahydrospiro[cyclopropa[e]pyrrolo[1,2-a][1,4]diazacyclopentadecine-2,3′-pyrano[2,3-c]quinolin]-6-yl]carbamate]", "values": [{"measurement": "IC50", "setting": "[2]", "value": 0.013, "unit": "nM"}]}
{"smiles": "Cc1nc2ccc(C(F)(F)F)cc2c2c1O[C@]1(CC2)C[C@H]2C(=O)N[C@]3(C(=O)NS(=O)(=O)C4(C)CC4)C[C@H]3/C=C\\CCCCC[C@H](NC(=O)OCC(C)C)C(=O)N2C1", "note": "[Example 253, 2-methylpropyl [(2R,6S,12Z,13aS,14aR,16aS)-5′-methyl-14a-{[(1-methylcyclopropyl)sulfonyl]carbamoyl}-5,16-dioxo-9′-(trifluoromethyl)-1,1′,2′,5,6,7,8,9,10,11,13a,14,14a,15,16,16a-hexadecahydrospiro[cyclopropa[e]pyrrolo[1,2-a][1,4]diazacyclopentadecine-2,3′-pyrano[2,3-c]quinolin]-6-yl]carbamate]", "values": [{"measurement": "IC50", "setting": "[2]", "value": 0.014, "unit": "nM"}]}
{"smiles": "Cc1ccc2nc(C(F)(F)F)c3c(c2c1)CC[C@]1(C[C@H]2C(=O)N[C@]4(C(=O)NS(=O)(=O)C5(C)CC5)C[C@H]4/C=C\\CCCCC[C@H](NC(=O)OCC(C)(C)C)C(=O)N2C1)O3", "note": "[Example 391, 2,2-dimethylpropyl [(2R,6S,12Z,13aS,14aR,16aS)-9′-methyl-14a-{[(1-methylcyclopropyl)sulfonyl]carbamoyl}-5,16-dioxo-5′-(trifluoromethyl)-1,1′,2′,5,6,7,8,9,10,11,13a,14,14a,15,16,16a-hexadecahydrospiro[cyclopropa[e]pyrrolo[1,2-a][1,4]diazacyclopentadecine-2,3′-pyrano[2,3-c]quinolin]-6-yl]carbamate]", "values": [{"measurement": "IC50", "setting": "[3]", "value": 0.026, "unit": "nM"}]}
{"smiles": "Cc1ccc2nc(C(F)(F)F)c3c(c2c1)CC[C@]1(C[C@H]2C(=O)N[C@]4(C(=O)NS(=O)(=O)C5(C)CC5)C[C@H]4/C=C\\CCCCC[C@H](NC(=O)OC4CCCC4)C(=O)N2C1)O3", "note": "[Example 392, cyclopentyl [(2R,6S,12Z,13aS,14aR,16aS)-9′-methyl-14a-{[(1-methylcyclopropyl)sulfonyl]carbamoyl}-5,16-dioxo-5′-(trifluoromethyl)-1,1′,2′,5,6,7,8,9,10,11,13a,14,14a,15,16,16a-hexadecahydrospiro[cyclopropa[e]pyrrolo[1,2-a][1,4]diazacyclopentadecine-2,3′-pyrano[2,3-c]quinolin]-6-yl]carbamate]", "values": [{"measurement": "IC50", "setting": "[3]", "value": 0.014, "unit": "nM"}]}
{"smiles": "Cc1ccc2nc(C(F)(F)F)c3c(c2c1)CC[C@]1(C[C@H]2C(=O)N[C@]4(C(=O)NS(=O)(=O)C5(C)CC5)C[C@H]4/C=C\\CCCCC[C@H](NC(=O)OC(C)(C)C(F)(F)F)C(=O)N2C1)O3", "note": "[Example 393, 1,1,1-trifluoro-2-methylpropan-2-yl [(2R,6S,12Z,13aS,14aR,16aS)-9′-methyl-14a-{[(1-methylcyclopropyl)sulfonyl]carbamoyl}-5,16-dioxo-5′-(trifluoromethyl)-1,1′,2′,5,6,7,8,9,10,11,13a,14,14a,15,16,16a-hexadecahydrospiro[cyclopropa[e]pyrrolo[1,2-a][1,4]diazacyclopentadecine-2,3′-pyrano[2,3-c]quinolin]-6-yl]carbamate]", "values": [{"measurement": "IC50", "setting": "[3]", "value": 0.026, "unit": "nM"}]}
{"smiles": "Cc1nc2ccccc2c2c1O[C@]1(CC2)C[C@H]2C(=O)N[C@]3(C(=O)NS(=O)(=O)C4(C)CC4)C[C@H]3/C=C\\CCCCC[C@H](Nc3nc(C4CC4)no3)C(=O)N2C1", "note": "[Example 394, (2R,6S,12Z,13aS,14aR,16aS)-6-[(3-cyclopropyl-1,2,4-oxadiazol-5-yl)amino]-5′-methyl-N-[(1-methylcyclopropyl)sulfonyl]-5,16-dioxo-1,1′,2′,6,7,8,9,10,11,13a,14,15,16,16a-tetradecahydrospiro[cyclopropa[e]pyrrolo[1,2-a][1,4]diazacyclopentadecine-2,3′-pyrano[2,3-c]quinoline]-14a(5H)-carboxamide]", "values": [{"measurement": "IC50", "setting": "[3]", "value": 0.057, "unit": "nM"}]}
{"smiles": "Cc1ccc2nc(C(F)(F)F)c3c(c2c1)CC[C@]1(C[C@H]2C(=O)N[C@]4(C(=O)NS(=O)(=O)C5(C)CC5)C[C@H]4/C=C\\CCCCC[C@H](NC(=O)O[C@H](C)C(C)C)C(=O)N2C1)O3", "note": "[Example 395, (2R)-3-methylbutan-2-yl [(2R,6S,12Z,13aS,14aR,16aS)-9′-methyl-14a-{[(1-methylcyclopropyl)sulfonyl]carbamoyl}-5,16-dioxo-5′-(trifluoromethyl)-1,1′,2′,5,6,7,8,9,10,11,13a,14,14a,15,16,16a-hexadecahydrospiro[cyclopropa[e]pyrrolo[1,2-a][1,4]diazacyclopentadecine-2,3′-pyrano[2,3-c]quinolin]-6-yl]carbamate]", "values": [{"measurement": "IC50", "setting": "[3]", "value": 0.014, "unit": "nM"}]}
{"smiles": "Cc1ccc2nc(C(F)(F)F)c3c(c2c1)CC[C@]1(C[C@H]2C(=O)N[C@]4(C(=O)NS(=O)(=O)C5(C)CC5)C[C@H]4/C=C\\CCCCC[C@H](NC(=O)O[C@@H](C)C(C)C)C(=O)N2C1)O3", "note": "[Example 396, (2S)-3-methylbutan-2-yl [(2R,6S,12Z,13aS,14aR,16aS)-9′-methyl-14a-{[(1-methylcyclopropyl)sulfonyl]carbamoyl}-5,16-dioxo-5′-(trifluoromethyl)-1,1′,2′,5,6,7,8,9,10,11,13a,14,14a,15,16,16a-hexadecahydrospiro[cyclopropa[e]pyrrolo[1,2-a][1,4]diazacyclopentadecine-2,3′-pyrano[2,3-c]quinolin]-6-yl]carbamate]", "values": [{"measurement": "IC50", "setting": "[3]", "value": 0.009, "unit": "nM"}]}
{"smiles": "[2H]C([2H])(F)Oc1ccc2nc(C)c3c(c2c1)[C@H](F)C[C@]1(C[C@H]2C(=O)N[C@]4(C(=O)NS(=O)(=O)C5(C)CC5)C[C@H]4/C=C\\CCCCC[C@H](NC(=O)OC(C)(C)C)C(=O)N2C1)O3", "note": "[Example 397, tert-butyl [(1′R,2S,6S,12Z,13aS,14aR,16aS)-1′-fluoro-9′-{[fluoro(^2H2)methyl]oxy}-5′-methyl-14a-{[(1-methylcyclopropyl)sulfonyl]carbamoyl}-5,16-dioxo-1,1′,2′,5,6,7,8,9,10,11,13a,14,14a,15,16,16a-hexadecahydrospiro[cyclopropa[e]pyrrolo[1,2-a][1,4]diazacyclopentadecine-2,3′-pyrano[2,3-c]quinolin]-6-yl]carbamate]", "values": [{"measurement": "IC50", "setting": "[3]", "value": 0.006, "unit": "nM"}]}
